Source: US20260207600A1, “METHODS OF TREATMENT WITH MYOSIN MODULATOR” (MYOKARDIA, INC., priority 2019, published 2026)

Key:
CYP2J2 = biological target: T1, CYP2J2 (Homo sapiens, UniProt P51589); test: In vitro contribution of CYP enzymes to mavacamten metabolism; type: in vitro ADME
T1 sequence (P51589 1-502): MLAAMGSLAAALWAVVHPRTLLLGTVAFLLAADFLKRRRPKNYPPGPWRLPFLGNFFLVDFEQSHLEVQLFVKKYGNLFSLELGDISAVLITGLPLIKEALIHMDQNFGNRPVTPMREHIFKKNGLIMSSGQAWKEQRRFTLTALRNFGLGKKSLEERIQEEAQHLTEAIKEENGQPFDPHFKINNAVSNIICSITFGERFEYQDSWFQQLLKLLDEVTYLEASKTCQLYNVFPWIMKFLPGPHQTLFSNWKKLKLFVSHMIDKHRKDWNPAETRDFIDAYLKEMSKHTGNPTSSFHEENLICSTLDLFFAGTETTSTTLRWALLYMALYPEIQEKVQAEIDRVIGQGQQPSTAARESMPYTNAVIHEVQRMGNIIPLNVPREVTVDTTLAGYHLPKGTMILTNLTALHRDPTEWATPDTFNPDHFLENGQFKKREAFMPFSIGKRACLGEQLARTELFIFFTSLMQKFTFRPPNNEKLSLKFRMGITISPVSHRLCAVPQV

[1] = tested on: participants with symptomatic oHCM; test: EXPLORER-HCM Phase 3 double blind, randomized, placebo controlled study; type: in vivo, human
Excerpt: A subset of participants consented to participate in a CMR substudy at selected sites. Randomization was stratified according to NYHA functional classification (II or III), current treatment with β-blocker (yes or no), planned type of ergometer used during the study (treadmill or exercise bicycle), and consent for the CMR substudy (yes or no).
The study included 3 periods carried out according to the following design:
1) Screening period (Day −35 to Day −1): Participants will undergo a variety of general, cardiopulmonary, laboratory, symptom, and PRO assessments over 1 to 2 days in order to assess eligibility. Key Screening tests include electrocardiogram (ECG); transthoracic echocardiography (TTE) conducted at rest, with Valsalva maneuver, and post-exercise; as well as cardiopulmonary exercise testing (CPET). The following screening assessments may be repeated, as long as within the 35-days screening window: blood tests, ECG, and/or TTE. Repeat assessments are allowed if central core labs require a repeat submission due to quality and in order to better assess inclusion/exclusion values. Participants who screen fail may be considered for rescreening based on the investigator's discretion, taking into consideration the reason(s) for screen fail. One attempt at rescreening will be allowed, and all procedures must be repeated.
2) Double-blind treatment period (Day 1 [randomization] to Week 30/end of treatment [EOT]): The double-blind treatment period will include a two-step dose titration scheme designed to achieve safe and effective dosing for each participant based on their own response parameters. […] Subsequently, assessments including ECG, PK (trough plasma concentrations), and TTE will be performed at each of 7 study visits, beginning at Week 4, and read by core laboratories. At Week 8 and Week 14, the dose may be increased, decreased, or remain unchanged based upon results of Week 6 and Week 12 assessments, respectively, and based primarily on measurements of provoked left ventricular outflow tract (LVOT) gradient and bounded by a target plasma concentration (PK) range and clinical tolerability (LVEF). At Week 8, the dose may be increased to a maximum daily dose of 10 mg (ie, increase from 5 mg QD to 10 mg QD), and at Week 14 to a maximum daily dose of 15 mg (ie, increase from 10 mg QD to 15 mg QD). Dose increases are designed to be step wise and are not allowed to skip doses (eg, from 5 mg to 15 mg).
At Week 30/EOT, participants will complete CPET and post-exercise TTE. For any participants permanently discontinuing treatment prior to Week 30, an early termination (ET) visit should be conducted as soon as possible, including CPET and post-exercise TTE. Participants with ET will also be encouraged to complete all remaining study visits and assessments, including the Week 30 visit.
3) Posttreatment follow-up period (Week 30/EOT to Week 38/end of study [EOS]): When double-blind treatment ends at Week 30, participants will be contacted by phone at Week 34 and return to the site at Week 38 for an EOS visit. At the EOS visit, specified assessments will be repeated. This posttreatment follow-up period applies only to participants who are receiving study drug after Week 22.
To maintain safety throughout the double-blind treatment period, a clinic visit will occur every 2 to 4 weeks, beginning at Week 4 for an initial evaluation of clinical tolerability and safety. Clinic visits will include but are not limited to clinical evaluation (symptoms, PRO evaluations, adverse event [AE]/serious adverse event [SAE] assessment), ECGs, PK sample, TTEs, and laboratory assessments. Results of TTE performed by study site sonographers at each scheduled visit following randomization should be kept blinded to the investigator and other study site personnel. […]

[2] = Mavacamten arm (n = 123), baseline to Week 30
[3] = Mavacamten arm, defined as NYHA Class I and all LVOT gradients <30 mmHg
[4] = change from baseline to Week 30, p <0.0001

## CC(C)n1c(=O)cc(N[C@@H](C)c2ccccc2)[nH]c1=O [mavacamten, (S)-3-Isopropyl-6-((1-phenylethyl)amino)pyrimidine-2, 4(1H,3H)-dione]
CYP2J2
  percent contribution to the metabolism of mavacamten: negligible
[1]; 7 subjects, placebo 10.2%
  subjects with severe TEAEs: 5.7%
[1]; Mavacamten (n = 123)
  Response Type 1 (pVO2 ≥1.5 ml/kg/min and NYHA improved ≥1), n (%): 41 (33.3) n (%)
  Response Type 2 (pVO2 ≥3.0 ml/kg/min and no worsening NYHA), n (%): 29 (23.6) n (%)
  pVO2 ≥3.0 and NYHA ≥1, n (%): 25 (20.3) n (%)
[1]; Mavacamten (n = 123), Week 30
  Met Composite Functional Response, either type, n (%): 45 (36.6) n (%)
[1]; Mavacamten arm
  Absence of MR (mitral regurgitation), (%): (9.0) %
  Absence of MR (mitral regurgitation), n/assessible: 10/111
  Absence of SAM (systolic anterior motion of mitral valve), (%): (80.9) %
  Absence of SAM (systolic anterior motion of mitral valve), n/assessible: 76/94
  participants with a temporary discontinuation associated with reduced ejection fraction: 3
[1]; [2]
  HCMSQ-SoB score, change from baseline, mean (SD): −2.82 (2.7)
  KCCQ-CSS, change from baseline, mean (SD): 13.6 (14.4)
  KCCQ-OSS, change from baseline, mean (SD): 14.87 (15.8)
  KCCQ-total symptom score, change from baseline, mean (SD): 12.44 (15.0)
  NYHA improved ≥1 Class, n (%): 80 (65) n (%)
  Post-exercise LVOT peak gradient, change from baseline, mean (SD): −47.2 (40.3) mmHg
  pVO2, change from baseline, mean (SD): 1.4 (3.1) mL/kg/min
[1]; Mavacamten arm, Week 30
  Post-exercise LVOT peak gradient < 30 mmHg, (%): (56.6) %
  Post-exercise LVOT peak gradient < 30 mmHg, n/assessible: 64/113
  Post-exercise LVOT peak gradient < 50 mmHg, (%): (74.3) %
  Post-exercise LVOT peak gradient < 50 mmHg, n/assessible: 75/101
[1]; [3]
  Complete Response, (%): (27.4) %
  Complete Response, n/assessible: 32/117
[1]; Mavacamten vs Placebo
  Met Composite Functional Response, either type: 19.4
  Response Type 1: 19.3
  Response Type 2: 12.6
  pVO2 ≥3.0 and NYHA ≥1: 12.5
[1]; NYHA Class I and all LVOT gradients <30 mmHg, p <0.0001
  Complete Response, Mava vs Placebo Difference (95% CI): 26.6 (18.3, 34.8)
[1]; Week 30, 95% CI (0.169, 0.241), p <0.0001
  NT-proBNP Mava vs Placebo Model Est RR: 0.202
[1]; Week 30, 95% CI (0.500, 0.693), p <0.0001
  hs-cTnI Mava vs Placebo Model Est RR: 0.589
[1]; Week 30, p <0.0001
  Post-exercise LVOT peak gradient < 30 mmHg, Mava vs Placebo Difference (95% CI): 49.6 (39.3, 59.8)
  Post-exercise LVOT peak gradient < 50 mmHg, Mava vs Placebo Difference (95% CI): 53.5 (42.0. 65.0)
[1]; baseline to Week 30, p <0.0001
  NYHA improved ≥1 Class, Mavacamten vs Placebo Difference (95% CI): 33.8 (22.1, 45.4) <0.0001
[1]; change from baseline to Week 30, p 0.0002
  KCCQ-total symptom score, Mavacamten vs Placebo Difference (95% CI): 7.60 (3.68, 11.52) 0.0002
[1]; change from baseline to Week 30, p 0.0006
  pVO2, Mavacamten vs Placebo Difference (95% CI): 1.35 (0.580, 2.116) 0.0006 mL/kg/min
[1]; [4]
  HCMSQ-SoB score, Mavacamten vs Placebo Difference (95% CI): −1.8 (−2.402, −1.196) <0.0001
  KCCQ-CSS, Mavacamten vs Placebo Difference (95% CI): 9.1 (5.46, 12.66) <0.0001
  KCCQ-OSS, Mavacamten vs Placebo Difference (95% CI): 9.12 (5.46, 12.80) <0.0001
  Post-exercise LVOT peak gradient, Mavacamten vs Placebo Difference (95% CI): −35.5 (−43.1, −27.9) <0.0001 mmHg
[1]; doses ranging from 2.5 to 15 mg
  Tolerability: well tolerated
[1]; intent-to-treat, 45 of the 123 patients
  patients meeting the primary efficacy endpoint (composite functional response): 36.6%
[1]; on mavacamten (atrial fibrillation, syncope)
  permanent treatment discontinuations due to adverse events: 2
[1]; p 0.0006
  Absence of MR, Mava vs Placebo Difference (95% CI): 9.0 (3.7, 14.3)
[1]; p <0.0001
  Absence of SAM, Mava vs Placebo Difference (95% CI): 46.9 (34.5, 59.2)
[1]; patients on mavacamten (all at a 5 mg dose)
  temporary discontinuations: 8
[1]; placebo 1%
  patients achieving a complete response (NYHA 1 and all LVOT gradients below 30 mmHg): 27%
[1]; placebo 4
  patients with cardiac SAEs: 4
[1]; placebo 7%
  patients achieving a post-exercise LVOT peak gradient below 30 mmHg: 57%
[1]; placebo 20
  number of SAEs: 12
[1]; placebo 21%
  patients achieving NYHA class I status: 65%
[1]; through week 30, 10 subjects
  subjects experiencing SAEs: 8.1%
